Several values for one entry are separate records, joined by “and”; a condition that tells them apart may be missing. Identical values can stand only once.

In assay [1] the target is T1, SGK1 (Homo sapiens, UniProt O00141).
T1 sequence (O00141 1-431): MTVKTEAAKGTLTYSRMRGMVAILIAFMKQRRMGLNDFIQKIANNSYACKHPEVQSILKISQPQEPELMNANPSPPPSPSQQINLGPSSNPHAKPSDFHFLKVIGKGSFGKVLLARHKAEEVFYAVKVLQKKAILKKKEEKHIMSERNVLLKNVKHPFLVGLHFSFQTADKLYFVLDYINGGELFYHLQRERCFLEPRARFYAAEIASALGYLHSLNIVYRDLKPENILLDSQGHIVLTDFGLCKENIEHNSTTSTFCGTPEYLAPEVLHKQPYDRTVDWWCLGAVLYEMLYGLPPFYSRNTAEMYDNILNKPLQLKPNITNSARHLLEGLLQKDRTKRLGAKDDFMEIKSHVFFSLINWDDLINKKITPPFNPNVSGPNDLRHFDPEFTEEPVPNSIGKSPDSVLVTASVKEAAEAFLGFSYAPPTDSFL
Kind of assay: biochemical. To be noted: read-out: % enzyme activity, 1 μM; Run 1, Run 2.

The target of assay [2] is PAK3 (Homo sapiens, UniProt O75914). To be noted: 1 μM; Run 1, Run 2.
PAK3, sequence (O75914 whole entry): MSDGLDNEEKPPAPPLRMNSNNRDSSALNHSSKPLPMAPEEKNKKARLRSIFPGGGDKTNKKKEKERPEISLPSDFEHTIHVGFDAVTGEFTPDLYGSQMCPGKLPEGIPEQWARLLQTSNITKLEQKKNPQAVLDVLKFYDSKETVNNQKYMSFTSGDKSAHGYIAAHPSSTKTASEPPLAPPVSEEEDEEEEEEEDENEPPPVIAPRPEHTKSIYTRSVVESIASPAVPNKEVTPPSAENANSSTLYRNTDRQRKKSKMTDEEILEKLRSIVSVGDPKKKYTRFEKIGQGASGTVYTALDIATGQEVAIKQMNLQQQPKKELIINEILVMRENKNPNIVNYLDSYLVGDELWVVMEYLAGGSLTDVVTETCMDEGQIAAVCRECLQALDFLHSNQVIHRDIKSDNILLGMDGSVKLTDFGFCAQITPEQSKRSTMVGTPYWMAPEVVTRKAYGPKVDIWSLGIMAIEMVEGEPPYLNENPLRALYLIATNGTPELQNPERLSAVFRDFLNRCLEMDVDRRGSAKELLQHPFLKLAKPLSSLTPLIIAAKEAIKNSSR
In assay [3] the target is SSTK/TSSK6 (Homo sapiens, UniProt Q9BXA6). The settings on record: 1 μM; Run 1, Run 2.
SSTK/TSSK6, sequence (Q9BXA6 whole entry): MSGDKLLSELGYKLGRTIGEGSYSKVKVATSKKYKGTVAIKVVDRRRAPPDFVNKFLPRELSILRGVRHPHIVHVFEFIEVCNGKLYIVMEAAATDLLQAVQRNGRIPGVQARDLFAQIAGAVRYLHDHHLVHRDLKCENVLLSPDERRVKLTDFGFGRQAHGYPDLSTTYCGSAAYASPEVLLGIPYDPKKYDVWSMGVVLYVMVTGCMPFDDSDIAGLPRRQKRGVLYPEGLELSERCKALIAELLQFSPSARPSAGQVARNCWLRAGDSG
For assay [4], the target named is MLCK/MYLK (Homo sapiens, UniProt Q15746). Put plainly: biochemical. To be noted: read-out: % enzyme activity, 1 μM; Run 1, Run 2.
MLCK/MYLK, sequence (Q15746 whole entry): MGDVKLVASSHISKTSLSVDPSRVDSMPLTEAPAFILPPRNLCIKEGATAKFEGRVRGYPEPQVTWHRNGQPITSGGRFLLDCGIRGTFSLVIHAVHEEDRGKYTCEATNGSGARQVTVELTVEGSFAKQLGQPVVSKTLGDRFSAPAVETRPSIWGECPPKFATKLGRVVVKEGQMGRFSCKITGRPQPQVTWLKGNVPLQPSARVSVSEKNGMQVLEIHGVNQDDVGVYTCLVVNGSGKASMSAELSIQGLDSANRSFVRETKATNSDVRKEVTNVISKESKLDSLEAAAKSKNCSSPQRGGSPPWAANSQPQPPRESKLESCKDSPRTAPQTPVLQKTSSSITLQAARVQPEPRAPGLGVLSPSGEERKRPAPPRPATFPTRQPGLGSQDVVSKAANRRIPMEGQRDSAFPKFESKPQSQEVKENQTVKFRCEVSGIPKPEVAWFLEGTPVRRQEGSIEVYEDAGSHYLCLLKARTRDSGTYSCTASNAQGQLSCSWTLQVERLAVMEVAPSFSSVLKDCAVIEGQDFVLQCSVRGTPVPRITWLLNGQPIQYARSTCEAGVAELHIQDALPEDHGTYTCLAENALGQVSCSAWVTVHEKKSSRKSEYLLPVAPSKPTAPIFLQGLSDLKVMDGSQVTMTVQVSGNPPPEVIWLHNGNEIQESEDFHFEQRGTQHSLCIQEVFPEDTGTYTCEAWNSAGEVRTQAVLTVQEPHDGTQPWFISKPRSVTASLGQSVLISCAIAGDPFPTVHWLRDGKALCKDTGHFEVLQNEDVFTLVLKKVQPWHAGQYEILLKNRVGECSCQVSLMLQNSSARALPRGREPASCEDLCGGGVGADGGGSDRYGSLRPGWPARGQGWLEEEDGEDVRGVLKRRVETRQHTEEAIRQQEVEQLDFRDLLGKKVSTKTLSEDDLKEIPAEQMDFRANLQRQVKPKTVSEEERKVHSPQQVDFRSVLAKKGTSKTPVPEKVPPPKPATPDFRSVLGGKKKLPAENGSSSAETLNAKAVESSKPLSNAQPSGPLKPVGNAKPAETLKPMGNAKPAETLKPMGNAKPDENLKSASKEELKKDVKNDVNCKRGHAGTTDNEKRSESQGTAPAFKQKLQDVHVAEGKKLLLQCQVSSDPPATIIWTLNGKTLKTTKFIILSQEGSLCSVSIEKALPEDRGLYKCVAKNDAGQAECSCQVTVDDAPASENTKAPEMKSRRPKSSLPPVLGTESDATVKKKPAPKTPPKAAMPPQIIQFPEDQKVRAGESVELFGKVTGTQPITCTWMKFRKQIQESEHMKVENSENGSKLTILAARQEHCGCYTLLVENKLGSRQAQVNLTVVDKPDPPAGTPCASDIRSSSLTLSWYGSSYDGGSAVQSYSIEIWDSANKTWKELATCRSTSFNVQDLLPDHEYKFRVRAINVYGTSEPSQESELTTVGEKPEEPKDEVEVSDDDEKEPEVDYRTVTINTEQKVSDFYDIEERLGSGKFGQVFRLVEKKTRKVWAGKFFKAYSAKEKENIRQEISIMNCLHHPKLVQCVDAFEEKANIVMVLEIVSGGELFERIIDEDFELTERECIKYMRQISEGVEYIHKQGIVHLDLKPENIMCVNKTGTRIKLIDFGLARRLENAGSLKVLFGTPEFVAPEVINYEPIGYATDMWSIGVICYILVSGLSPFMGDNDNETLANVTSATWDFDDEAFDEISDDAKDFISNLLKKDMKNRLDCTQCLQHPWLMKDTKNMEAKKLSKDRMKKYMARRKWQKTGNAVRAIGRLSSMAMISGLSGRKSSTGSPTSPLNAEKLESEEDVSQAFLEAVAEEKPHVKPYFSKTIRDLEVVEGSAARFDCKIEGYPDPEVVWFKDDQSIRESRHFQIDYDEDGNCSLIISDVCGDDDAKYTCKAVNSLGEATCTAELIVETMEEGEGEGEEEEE
Assay [5] has as its system NLK.
Assay [6] deals with T2, ALK2/ACVR1 (Homo sapiens, UniProt Q04771).
T2 construct: purchased Reaction Biology Corporation
T2 sequence (Q04771 21-509): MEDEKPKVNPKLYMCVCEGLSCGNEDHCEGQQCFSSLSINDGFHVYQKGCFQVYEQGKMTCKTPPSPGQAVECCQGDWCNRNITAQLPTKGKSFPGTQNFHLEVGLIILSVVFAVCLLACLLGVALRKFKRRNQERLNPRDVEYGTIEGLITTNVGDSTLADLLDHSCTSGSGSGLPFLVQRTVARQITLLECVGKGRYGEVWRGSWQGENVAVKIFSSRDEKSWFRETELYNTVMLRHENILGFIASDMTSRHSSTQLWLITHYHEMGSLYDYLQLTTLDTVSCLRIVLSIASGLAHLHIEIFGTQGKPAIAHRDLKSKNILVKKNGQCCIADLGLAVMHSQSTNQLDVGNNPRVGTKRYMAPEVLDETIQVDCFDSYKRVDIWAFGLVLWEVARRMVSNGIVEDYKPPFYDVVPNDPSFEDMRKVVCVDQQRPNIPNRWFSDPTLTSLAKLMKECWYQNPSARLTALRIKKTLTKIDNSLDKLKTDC
Kind of assay: biochemical. The settings on record: Run 1, Run 2; for % enzyme activity: 1 μM; for remaining activity at 1 µM: read-out: % enzyme activity, 1 μM.

Assay [7] has as its target T3, TAOK3/JIK (Homo sapiens, UniProt Q9H2K8).
T3 sequence (Q9H2K8 1-898): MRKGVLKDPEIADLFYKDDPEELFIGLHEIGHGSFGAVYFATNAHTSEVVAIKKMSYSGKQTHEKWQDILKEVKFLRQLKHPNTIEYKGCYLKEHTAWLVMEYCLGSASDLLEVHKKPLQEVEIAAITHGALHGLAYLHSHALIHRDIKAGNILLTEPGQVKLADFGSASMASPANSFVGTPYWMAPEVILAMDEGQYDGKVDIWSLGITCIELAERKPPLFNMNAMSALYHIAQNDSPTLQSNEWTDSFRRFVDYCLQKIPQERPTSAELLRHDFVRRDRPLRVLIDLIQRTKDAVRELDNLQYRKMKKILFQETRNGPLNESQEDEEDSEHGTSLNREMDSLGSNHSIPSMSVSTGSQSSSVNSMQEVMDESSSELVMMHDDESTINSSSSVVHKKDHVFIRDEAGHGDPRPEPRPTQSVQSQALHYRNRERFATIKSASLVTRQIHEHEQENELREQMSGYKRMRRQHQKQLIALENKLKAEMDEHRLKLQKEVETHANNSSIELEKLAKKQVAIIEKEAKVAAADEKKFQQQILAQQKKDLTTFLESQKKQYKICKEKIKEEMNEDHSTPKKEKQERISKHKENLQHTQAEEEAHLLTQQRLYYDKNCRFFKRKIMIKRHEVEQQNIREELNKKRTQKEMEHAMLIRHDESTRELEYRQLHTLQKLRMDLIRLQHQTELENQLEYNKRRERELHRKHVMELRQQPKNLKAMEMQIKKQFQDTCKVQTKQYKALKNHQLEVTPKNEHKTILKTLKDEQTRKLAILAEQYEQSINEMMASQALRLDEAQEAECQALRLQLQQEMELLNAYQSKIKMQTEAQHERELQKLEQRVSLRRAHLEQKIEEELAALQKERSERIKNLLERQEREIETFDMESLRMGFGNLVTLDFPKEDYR
The settings on record: 1 μM; Run 1, Run 2.

Assay [8] deals with T4, GCK/MAP4K2 (Homo sapiens, UniProt Q12851).
T4 sequence (Q12851 1-820): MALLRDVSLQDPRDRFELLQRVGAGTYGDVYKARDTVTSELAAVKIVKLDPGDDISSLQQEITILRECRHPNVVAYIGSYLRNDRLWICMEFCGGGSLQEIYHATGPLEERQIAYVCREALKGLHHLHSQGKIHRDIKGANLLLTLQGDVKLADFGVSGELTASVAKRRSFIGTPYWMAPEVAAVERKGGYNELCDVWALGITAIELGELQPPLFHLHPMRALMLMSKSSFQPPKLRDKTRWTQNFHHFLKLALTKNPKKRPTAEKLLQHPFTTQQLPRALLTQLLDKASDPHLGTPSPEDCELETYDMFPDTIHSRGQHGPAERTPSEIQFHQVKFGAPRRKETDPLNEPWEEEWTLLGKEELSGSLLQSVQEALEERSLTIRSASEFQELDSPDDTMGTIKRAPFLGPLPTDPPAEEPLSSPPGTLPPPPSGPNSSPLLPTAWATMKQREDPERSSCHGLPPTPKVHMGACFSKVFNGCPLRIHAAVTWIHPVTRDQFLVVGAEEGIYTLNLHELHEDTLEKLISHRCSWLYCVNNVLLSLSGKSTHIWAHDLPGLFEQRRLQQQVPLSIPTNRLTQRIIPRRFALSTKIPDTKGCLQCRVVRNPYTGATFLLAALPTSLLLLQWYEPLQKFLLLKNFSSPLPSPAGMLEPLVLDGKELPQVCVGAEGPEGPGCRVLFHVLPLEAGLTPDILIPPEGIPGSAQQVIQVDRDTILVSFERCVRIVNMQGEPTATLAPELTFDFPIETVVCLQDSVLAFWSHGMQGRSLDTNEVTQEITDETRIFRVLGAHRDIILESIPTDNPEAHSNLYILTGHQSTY
Kind of assay: biochemical. To be noted: read-out: % enzyme activity, 1 μM; Run 1, Run 2.

For assay [9], the target named is NIM1 (Homo sapiens, UniProt Q8IY84). To be noted: 1 μM; Run 1, Run 2.
NIM1, sequence (Q8IY84 whole entry): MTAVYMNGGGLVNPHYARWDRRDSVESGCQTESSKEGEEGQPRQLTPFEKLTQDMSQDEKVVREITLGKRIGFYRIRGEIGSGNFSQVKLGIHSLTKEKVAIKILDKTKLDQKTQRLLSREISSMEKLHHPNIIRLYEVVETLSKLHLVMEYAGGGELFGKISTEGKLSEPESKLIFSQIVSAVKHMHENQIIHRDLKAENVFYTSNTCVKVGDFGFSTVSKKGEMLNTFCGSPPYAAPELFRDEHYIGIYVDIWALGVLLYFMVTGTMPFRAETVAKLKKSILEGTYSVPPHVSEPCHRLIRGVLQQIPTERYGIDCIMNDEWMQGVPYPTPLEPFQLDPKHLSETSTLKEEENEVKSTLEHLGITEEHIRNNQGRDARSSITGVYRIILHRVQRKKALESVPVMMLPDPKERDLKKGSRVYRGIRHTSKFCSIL

As to `COc1cc(-c2cncc(-c3ccc(N4CCN(C)CC4)cc3)c2C)cc(F)c1C(N)=O` [Compound 26a, 2-Fluoro-6-methoxy-4-(4-methyl-5-(4-(4-methylpiperazin-1-yl)phenyl)pyridin-3-yl)benzamide], the remaining activity at 1 µM in [1] came out at 94.9%; in assay [4] it was 106%; in assay [6], 9.92%; in [8] it was 61.8%. Moreover, the “% enzyme activity” value was found to be 87.14% in assay [2]; 107.86% in assay [3]; 8.63% in [6]; 69.26% in [7]; 95.18% in assay [9]. In assay [5], the % enzyme activity at 1 μM was 22% and 20.8%.

Turning to `COc1cc(-c2cncc(-c3ccc(N4C[C@@H](C)N(C)[C@@H](C)C4)cc3)c2C)cc(F)c1C(N)=O` [Compound 26c, 2-Fluoro-6-methoxy-4-(4-methyl-5-(4-((3R,5S)-3,4,5-trimethylpiperazin-1-yl)phenyl)pyridin-3-yl)benzamide], the remaining activity at 1 µM worked out at 98.8% in assay [1], 103% in [4], 13.7% in assay [6] and 75.4% in [8]. Besides, the “% enzyme activity” value in assay [2] amounted to 124.21%; in assay [3] it was 98.04%; in [6], 11.70%; in assay [7], 81.51%; in assay [9], 97.81%. Also, in assay [5], the % enzyme activity at 1 μM is 50.4% and 47.7%.

Source of the values: publication PMC8213057, “Targeting ALK2: An Open Science Approach to Developing Therapeutics for the Treatment of Diffuse Intrinsic Pontine Glioma” (Journal of Medicinal Chemistry, 2020).
